In US20260258035A1, “FIVE-MEMBERED AND SIX-MEMBERED NITROGEN-CONTAINING COMPOUND, AND INTERMEDIATE, PREPARATION METHOD AND USE THEREOF” (HANGZHOU SYNRX THERAPEUTICS BIOMEDICAL TECHNOLOGY CO., LTD., priority 2022, published 2026):
Where two headings read alike, the source gives them in different places.

Columns and labels:
[1] = target: PARG (Homo sapiens, UniProt Q86W56); experiment: Biochemical assay (PARG, TFMU-ADPr substrate)
[2] = system: HCC1806; experiment: Cell viability assay (CellTiter-Glo); format: cell-based, Human; conditions: HCC1806, 7 days, CellTiter-Glo, read-out: IC50 (nM) in cell viability assay

Sequence of PARG (Q86W56 whole entry): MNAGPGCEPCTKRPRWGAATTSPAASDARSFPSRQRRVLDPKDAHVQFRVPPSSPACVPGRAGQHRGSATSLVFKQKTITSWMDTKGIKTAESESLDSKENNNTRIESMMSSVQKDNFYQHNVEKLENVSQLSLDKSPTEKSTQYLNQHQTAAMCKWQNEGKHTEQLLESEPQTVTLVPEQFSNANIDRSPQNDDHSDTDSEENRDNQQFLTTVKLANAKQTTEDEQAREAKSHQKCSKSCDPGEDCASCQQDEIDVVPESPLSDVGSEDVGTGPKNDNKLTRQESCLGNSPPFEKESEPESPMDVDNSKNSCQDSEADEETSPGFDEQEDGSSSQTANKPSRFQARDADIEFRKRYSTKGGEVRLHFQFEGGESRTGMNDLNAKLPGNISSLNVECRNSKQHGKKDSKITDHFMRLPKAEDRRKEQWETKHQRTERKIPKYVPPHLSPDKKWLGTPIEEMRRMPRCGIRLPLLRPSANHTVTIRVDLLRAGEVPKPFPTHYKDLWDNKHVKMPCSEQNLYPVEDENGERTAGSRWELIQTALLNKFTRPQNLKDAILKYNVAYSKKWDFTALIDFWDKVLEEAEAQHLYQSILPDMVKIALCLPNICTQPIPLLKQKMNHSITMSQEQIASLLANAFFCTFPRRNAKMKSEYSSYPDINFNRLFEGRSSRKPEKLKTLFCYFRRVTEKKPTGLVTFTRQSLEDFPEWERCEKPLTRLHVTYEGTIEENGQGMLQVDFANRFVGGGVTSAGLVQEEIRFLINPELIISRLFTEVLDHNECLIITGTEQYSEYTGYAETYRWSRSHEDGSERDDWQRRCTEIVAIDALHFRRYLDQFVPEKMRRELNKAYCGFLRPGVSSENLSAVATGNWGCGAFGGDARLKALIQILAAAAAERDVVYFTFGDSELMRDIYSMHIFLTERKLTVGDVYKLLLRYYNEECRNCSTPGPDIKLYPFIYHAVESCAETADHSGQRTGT

Row | IC50 ([1]; PARG, TFMU-ADPr substrate) | IC50 ([2]; Homo sapiens, HCC1806, 168 h) | IC50 ([1]; 4 nM PARG, 66.2 uM TFMU-ADPr, 3 min at room temperature) | IC50 [2] | SMILES
1 | 38.3 nM | 586 nM |  |  | CC(C)C(=O)N1CCN(c2cc(S(=O)(=O)NC3(C#N)CC3)cn3c(-c4nnc(C(F)(F)F)s4)ncc23)C(C)C1 (centres unmarked) [Example 344, N-(1-cyanocyclopropyl)-8-(4-isobutyryl-2-methylpiperazin-1-yl)-3-(5-(trifluoromethyl)-1,3,4-thiadiazol-2-yl)imidazo[1,5-a]pyridine-6-sulfonamide]
2 | 5.01 nM | 374 nM |  |  | CC1(NS(=O)(=O)c2cc(N3CCN(C(=O)C4(CO)CC4)CC3)c3cnc(-c4nnc(C(F)(F)F)s4)n3c2)CC1 [Example 345, 8-(4-(1-(hydroxymethyl)cyclopropane-1-carbonyl)piperazin-1-yl)-N-(1-methylcyclopropyl)-3-(5-(trifluoromethyl)-1,3,4-thiadiazol-2-yl)imidazo[1,5-a]pyridine-6-sulfonamide]
3 | 1.53 nM | 109 nM |  |  | COCC1(O)CCN(c2cc(S(=O)(=O)NC3(C)CC3)cn3c(-c4nnc(C(F)F)s4)ncc23)CC1 [Example 346, 3-(5-(difluoromethyl)-1,3,4-thiadiazol-2-yl)-8-(4-hydroxy-4-(methoxymethyl)piperidin-1-yl)-N-(1-methylcyclopropyl)imidazo[1,5-a]pyridine-6-sulfonamide]
4 | 4.64 nM | 282 nM |  |  | CC1(NS(=O)(=O)c2cc(N3CCOCC3)c3cnc(-c4nnc(C(F)F)s4)n3c2)CC1 [Example 347, 3-(5-(difluoromethyl)-1,3,4-thiadiazol-2-yl)-N-(1-methylcyclopropyl)-8-morpholinoimidazo[1,5-a]pyridine-6-sulfonamide]
5 | 1.99 nM | 257 nM |  |  | COC1CN(c2cc(S(=O)(=O)NC3(C)CC3)cn3c(-c4nnc(C(F)F)s4)ncc23)CCC1O (centres unmarked) [Example 348, 3-(5-(difluoromethyl)-1,3,4-thiadiazol-2-yl)-8-(4-hydroxy-3-methoxypiperidin-1-yl)-N-(1-methylcyclopropyl)imidazo[1,5-a]pyridine-6-sulfonamide]
6 | 3.98 nM | 455 nM |  |  | CC1(NS(=O)(=O)c2cc(N3CCC(O)C(O)C3)c3cnc(-c4nnc(C(F)F)s4)n3c2)CC1 (centres unmarked) [Example 349, 3-(5-(difluoromethyl)-1,3,4-thiadiazol-2-yl)-8-(3,4-dihydroxypiperidin-1-yl)-N-(1-methylcyclopropyl)imidazo[1,5-a]pyridine-6-sulfonamide]
7 | 20 nM | 713 nM |  |  | COC1(CN2CCN(c3cc(S(=O)(=O)NC4(C)CC4)cn4c(-c5nnc(C(F)F)s5)ncc34)CC2)CC1 [Example 350, 3-(5-(difluoromethyl)-1,3,4-thiadiazol-2-yl)-8-(4-((1-methoxycyclopropyl)methyl)piperazin-1-yl)-N-(1-methylcyclopropyl)imidazo[1,5-a]pyridine-6-sulfonamide]
8 | 4.13 nM | 163 nM |  |  | CN1CCC(F)(F)C1C(=O)N1CCN(c2cc(S(=O)(=O)NC3(C)CC3)cn3c(-c4nnc(C(F)(F)F)s4)ncc23)CC1 (centres unmarked) [Example 351, 8-(4-(3,3-difluoro-1-methylpyrrolidine-2-carbonyl)piperazin-1-yl)-N-(1-methylcyclopropyl)-3-(5-(trifluoromethyl)-1,3,4-thiadiazol-2-yl)imidazo[1,5-a]pyridine-6-sulfonamide]
9 | 15.3 nM | 561 nM |  |  | CC1(NS(=O)(=O)c2cc(N3CCN(C(=O)[C@H]4CC(F)(F)CN4)CC3)c3cnc(-c4nnc(C(F)(F)F)s4)n3c2)CC1 [Example 352, (R)-8-(4-(4,4-difluoropyrrolidine-2-carbonyl)piperazin-1-yl)-N-(1-methylcyclopropyl)-3-(5-(trifluoromethyl)-1,3,4-thiadiazol-2-yl)imidazo[1,5-a]pyridine-6-sulfonamide]
10 | 12.6 nM | 434 nM |  |  | CN1CC(F)(F)C[C@@H]1C(=O)N1CCN(c2cc(S(=O)(=O)NC3(C)CC3)cn3c(-c4nnc(C(F)(F)F)s4)ncc23)CC1 [Example 353, (R)-8-(4-(4,4-difluoro-1-methylpyrrolidine-2-carbonyl)piperazin-1-yl)-N-(1-methylcyclopropyl)-3-(5-(trifluoromethyl)-1,3,4-thiadiazol-2-yl)imidazo[1,5-a]pyridine-6-sulfonamide]
11 | 0.27 nM | 65.8 nM |  |  | C[C@H]1CN(c2cc(S(=O)(=O)NC3(C)COC3)cn3c(-c4nnc(C(F)F)s4)ncc23)C[C@H](C)O1 [Example 354, 3-(5-(difluoromethyl)-1,3,4-thiadiazol-2-yl)-8-((2S,6S)-2,6-dimethylmorpholino)-N-(3-methyloxetan-3-yl)imidazo[1,5-a]pyridine-6-sulfonamide]
12 | 0.5 nM | 85 nM |  |  | C[C@H]1CN(c2cc(S(=O)(=O)NC3(C)COC3)cn3c(-c4nnc(C(F)(F)F)s4)ncc23)C[C@H](C)O1 [Example 355, 8-((2S,6S)-2,6-dimethylmorpholino)-N-(3-methyloxetan-3-yl)-3-(5-(trifluoromethyl)-1,3,4-thiadiazol-2-yl)imidazo[1,5-a]pyridine-6-sulfonamide]
13 | 6.31 nM | 305 nM |  |  | COCC1CN(c2cc(S(=O)(=O)NC3(CF)COC3)cn3c(-c4nnc(C(F)F)s4)ncc23)CCN1 (centres unmarked) [Example 356, 3-(5-(difluoromethyl)-1,3,4-thiadiazol-2-yl)-N-(3-(fluoromethyl)oxetan-3-yl)-8-(3-(methoxymethyl)piperazin-1-yl)imidazo[1,5-a]pyridine-6-sulfonamide]
14 | 8.31 nM | 208 nM |  |  | COCC1CN(c2cc(S(=O)(=O)NC3(C)COC3)cn3c(-c4nnc(C(F)F)s4)ncc23)CCN1 (centres unmarked) [Example 357, 3-(5-(difluoromethyl)-1,3,4-thiadiazol-2-yl)-8-(3-(methoxymethyl)piperazin-1-yl)-N-(3-methyloxetan-3-yl)imidazo[1,5-a]pyridine-6-sulfonamide]
15 | 15.8 nM | 261 nM |  |  | COCC1CN(c2cc(S(=O)(=O)NC3(C)COC3)cn3c(-c4nnc(C(F)(F)F)s4)ncc23)CCN1 (centres unmarked) [Example 358, 8-(3-(methoxymethyl)piperazin-1-yl)-N-(3-methyloxetan-3-yl)-3-(5-(trifluoromethyl)-1,3,4-thiadiazol-2-yl)imidazo[1,5-a]pyridine-6-sulfonamide]
16 | 1.44 nM | 47 nM |  |  | C[C@H]1CN(c2cc(S(=O)(=O)NC3(CF)COC3)cn3c(-c4nnc(C(F)F)s4)ncc23)C[C@H](C)N1 [Example 359, 3-(5-(difluoromethyl)-1,3,4-thiadiazol-2-yl)-8-((3S,5S)-3,5-dimethylpiperazin-1-yl)-N-(3-(fluoromethyl)oxetan-3-yl)imidazo[1,5-a]pyridine-6-sulfonamide]
17 | 36.3 nM | 637 nM |  |  | COCC1CN(c2cc(S(=O)(=O)NC3(C)COC3)cn3c(-c4nnc(C(F)(F)F)s4)cnc23)CCN1 (centres unmarked) [Example 360, 8-(3-(methoxymethyl)piperazin-1-yl)-N-(3-methyloxetan-3-yl)-3-(5-(trifluoromethyl)-1,3,4-thiadiazol-2-yl)imidazo[1,2-a]pyridine-6-sulfonamide]
18 | 18.2 nM | 642 nM |  |  | CC(C)OCC1CN(c2cc(S(=O)(=O)NC3(C)COC3)cn3c(-c4nnc(C(F)F)s4)ncc23)CCN1 (centres unmarked) [Example 361, 3-(5-(difluoromethyl)-1,3,4-thiadiazol-2-yl)-8-(3-(isopropoxymethyl)piperazin-1-yl)-N-(3-methyloxetan-3-yl)imidazo[1,5-a]pyridine-6-sulfonamide]
19 | 6.31 nM | 158 nM |  |  | CCNC(=O)N1CCN(c2cc(S(=O)(=O)NC3(C)COC3)cn3c(-c4nnc(C(F)(F)F)s4)ncc23)CC1 [Example 362, N-ethyl-4-(6-(N-(3-methyloxetan-3-yl)sulfamoyl)-3-(5-(trifluoromethyl)-1,3,4-thiadiazol-2-yl)imidazo[1,5-a]pyridin-8-yl)piperazine-1-carboxamide]
20 | 1.71 nM | 63 nM |  |  | CC1(NS(=O)(=O)c2cc(N3CCN4C(=O)COCC4C3)c3cnc(-c4nnc(C(F)(F)F)s4)n3c2)COC1 (centres unmarked) [Example 363, N-(3-methyloxetan-3-yl)-8-(4-oxohexahydropyrazino[2,1-c][1,4]oxazin-8(1H)-yl)-3-(5-(trifluoromethyl)-1,3,4-thiadiazol-2-yl)imidazo[1,5-a]pyridine-6-sulfonamide]
21 | 41.4 nM | 791 nM |  |  | CC1(NS(=O)(=O)c2cc(N3CCN(C4CC4)CC3)c3cnc(-c4nnc(C(F)F)s4)n3c2)COC1 [Example 364, 8-(4-cyclopropylpiperazin-1-yl)-3-(5-(difluoromethyl)-1,3,4-thiadiazol-2-yl)-N-(3-methyloxetan-3-yl)imidazo[1,5-a]pyridine-6-sulfonamide]
22 | 8.58 nM | 1070 nM |  |  | CC1(NS(=O)(=O)c2cc(N3CCNC4(CC4)C3)c3cnc(-c4nnc(C(F)F)s4)n3c2)COC1 [Example 365, 3-(5-(difluoromethyl)-1,3,4-thiadiazol-2-yl)-N-(3-methyloxetan-3-yl)-8-(4,7-diazaspiro[2.5]octan-7-yl)imidazo[1,5-a]pyridine-6-sulfonamide]
23 | 32.8 nM | 5000 to 30000 nM | < 100 nM | 6780 nM | Cn1nccc1C1C=C(c2cc(S(=O)(=O)NC3(C#N)CC3)cn3c(-c4nnc(C(F)F)s4)nnc23)CC1 (centres unmarked) [Example 367, N-(1-cyanocyclopropyl)-3-(5-(difluoromethyl)-1,3,4-thiadiazol-2-yl)-8-(3-(1-methyl-1H-pyrazol-5-yl)cyclopent-1-en-1-yl)-[1,2,4]triazolo[4,3-a]pyridine-6-sulfonamide]
24 | 13.8 nM | 900 nM |  |  | CC(C)C(=O)N1CC=C(c2cc(S(=O)(=O)NC3(C#N)CC3)cn3c(-c4nnc(C(F)(F)F)s4)ncc23)CC1 [Example 368, N-(1-cyanocyclopropyl)-8-(1-isobutyryl-1,2,3,6-tetrahydropyridin-4-yl)-3-(5-(trifluoromethyl)-1,3,4-thiadiazol-2-yl)imidazo[1,5-a]pyridine-6-sulfonamide]
